From PMC7218274 (Antiviral Chemistry & Chemotherapy, 2020)

How the values were obtained:
[1] = MTT cytotoxicity assay, A549 cells; format: cell-based, human; details: human, MTT, mean ± 1 SD, read-out: CC50 (50% cytotoxicity concentration)
Procedure: (§1) MT-2 cells and A549 cells were mixed with HAdV-19, 2× 10^5 cells/mL with 10^4 TCID50/mL and 1× 10^5 cells/mL with 3 × 10^3 TCID50/mL, respectively, in plate wells in the presence or absence of various concentrations of the compounds (MOI: 0.035 for MT-2 cells and 0.021 for A549). The plates were incubated for five days. At the end of the incubation period, CPE was determined using the MTT assay, as described previously.[11],[12] Thus, 25 µl of the MTT solution (7.5 mg/ml) in phosphate-buffered saline (Wako, Japan) was added to each well of the plate. Then, the plate was incubated at 37°C for 2 h. After incubation, 150 µl of medium was removed with care in order not to draw cells. To solubilize the formazan crystals and neutralize the viral infectivity, 100 μl of acidified isopropanol (4 ml concentrated HCl per 1 l of isopropanol) containing 10% (v/v) Triton X-100 was added to each well. Formazan crystals were completely solubilized by pipetting up and down, the absorbance at 560 nm of the wells was read by microplate reader (GloMax, Promega, Japan). The 50% antiviral effective concentration (EC50) was defined as the drug concentration that protects 50% of virus-infected cells from virus-induced cell damage and/or death.[12] The cytotoxicity of each compound was measured in parallel using the MTT assay. The 50% cytotoxicity concentration (CC50) was defined as the drug concentration that reduces cell viability by 50%. Data shown represent mean EC50 and CC50values (±1 standard deviation) derived from the results of two to four independent experiments conducted in duplicate.

A549 cells = experiment: MTT cytotoxicity assay, A549 cells; format: cell-based, human; details: at a concentration of 100 µM
Procedure: as §1

HAdV-19 [2] = experiment: MTT-based antiviral assay, HAdV-19-infected MT-2 cells; format: cell-based, Human adenovirus type 19; details: for EC50: Human mastadenovirus D, MT2, 120 h, HAdV-19, five days, MTT, mean ± 1 SD, read-out: EC50 (50% antiviral effective concentration)
Procedure: as §1, with “The 50% antiviral effective concentration (EC50) was defined as the drug concentration that protects 50% of virus-infected cells from virus-induced cell damage and/or death.[12]” left out, “50%.” for “50%. Data shown represent mean EC50 and CC50values (±1 standard deviation) derived from the results of two to four independent experiments conducted in duplicate.”

HAdV-19 [3] = experiment: MTT-based antiviral assay, HAdV-19-infected A549 cells; format: cell-based, Human adenovirus type 19; details: for EC50: Human mastadenovirus D, 120 h, HAdV-19, five days, MTT, mean ± 1 SD, read-out: EC50 (50% antiviral effective concentration)
Procedure: as §1, with “The 50% antiviral effective concentration (EC50) was defined as the drug concentration that protects 50% of virus-infected cells from virus-induced cell damage and/or death.[12]” left out, “50%.” for “50%. Data shown represent mean EC50 and CC50values (±1 standard deviation) derived from the results of two to four independent experiments conducted in duplicate.”

[4] = MTT cytotoxicity assay, MT-2 cells; format: cell-based, human; details: human, MTT, mean ± 1 SD, read-out: CC50 (50% cytotoxicity concentration)
Procedure: as §1

MT-2 cells = experiment: MTT cytotoxicity assay, MT-2 cells; format: cell-based, human; details: at a concentration of 100 µM
Procedure: as §1

With Nc1ccn(C[C@@H](CO)OCP(=O)(O)O)c(=O)n1 [CDV, (S)-1–(3-hydroxy-2-phosphonylmethoxypropyl)cytosine] the CC50 at 5 days [1] was greater than 100 µM, the tolerance by cells (A549 cells) was “tolerated” and the “SI (selectivity index, ratio of CC50 and EC50)” value (HAdV-19 [2]) was greater than 1.6. The EC50 (HAdV-19 [2]) was 62 ± 26 µM, the “SI (selectivity index, ratio of CC50 and EC50)” value (HAdV-19 [3]) was greater than 24 and the EC50 (HAdV-19 [3]) was 4.2 ± 1.1 µM. For the same molecule, the CC50 at 5 days [4] was greater than 100 µM and the tolerance by cells (MT-2 cells) was “tolerated”.
In the case of Cc1cn([C@H]2C[C@H](F)[C@@H](CO)O2)c(=O)[nH]c1=O [FdT, 3′-deoxy-3′-fluorothymidine], the CC50 at 5 days [1] is reported as 7.6 ± 4.2 µM, the EC50 (HAdV-19 [2]) is reported as 1.8 ± 0.2 µM and the EC50 (HAdV-19 [3]) is reported as 0.03 ± 0.01 µM. It also gave a CC50 at 5 days [4] of 36 ± 5 µM.
With Nc1nc(O)c2ncn(COC(CO)CO)c2n1 [GCV, ganciclovir] the CC50 at 5 days [1] was greater than 100 µM, the tolerance by cells (A549 cells) was “tolerated” and the “SI (selectivity index, ratio of CC50 and EC50)” value (HAdV-19 [2]) was greater than 1.7. For the same molecule, the EC50 (HAdV-19 [2]) was 60 ± 7 µM, the “SI (selectivity index, ratio of CC50 and EC50)” value (HAdV-19 [3]) was greater than 1.9 and the EC50 (HAdV-19 [3]) was 54 ± 27 µM. The CC50 at 5 days [4] was greater than 100 µM and the tolerance by cells (MT-2 cells) was “tolerated”.
In the case of NC(=O)c1ncn([C@@H]2O[C@H](CO)[C@@H](O)[C@H]2O)n1 [RBV, ribavirin], the CC50 at 5 days [1] is reported as 53 ± 21 µM, the EC50 (HAdV-19 [2]) is reported as greater than 18 µM and the “antiviral activity against HAdV-19 (in words)” value (HAdV-19 [2]; MTT assay) is reported as “little antiviral activity”. For the same molecule, the EC50 (HAdV-19 [3]) was greater than 53 µM and the CC50 at 5 days [4] was 18 ± 1 µM.
For Nc1ccn([C@H]2CC[C@@H](CO)O2)c(=O)n1 [ddC, 2′,3′-dideoxycytidine], the CC50 at 5 days [1] was greater than 100 µM, the tolerance by cells (A549 cells) was “tolerated” and the “SI (selectivity index, ratio of CC50 and EC50)” value (HAdV-19 [2]) was greater than 38. For the same molecule, the EC50 (HAdV-19 [2]) was 2.6 ± 0.4 µM, the “SI (selectivity index, ratio of CC50 and EC50)” value (HAdV-19 [3]) was greater than 286 and the EC50 (HAdV-19 [3]) was 0.35 ± 0.04 µM. For the same molecule, the CC50 at 5 days [4] was greater than 100 µM and the tolerance by cells (MT-2 cells) was “tolerated”.
